The test system of series [1] is human solid tumor cell lines A549, SW1573, HBL-100, T-47D, HeLa, WiDr. Further details: method as in PMID 28728108. The conditions noted are these: same assay; read-out: GI50 of reference agent in the same assay; cited from earlier work.
The subject of series [2] is arginase-1 expression in Bv.2 microglial cells. The series can be described thus: Arginase-1 levels (Western blot). The conditions noted are these: Bv.2 cells, absence or presence of LPS 200 ng/mL; 10 at 10 μM, 14 at 50 μM. In kind it is cell-based, mouse. The protocol:
(§1) Mouse microglia Bv.2 cell line was supplied by Dr. M.L. Nieto (IBGM, Valladolid, Spain). Bv.2 cells were cultured at 37 °C in a humidified atmosphere with 5% CO2 in RPMI supplemented with 10% (v/v) heat-inactivated FBS, 1% (v/v) penicillin/streptomycin (Sigma) and 2 mM L-glutamine (Gibco, Carlsbad, CA, USA). Cells were grown up to 70% confluence and then washed twice with PBS and further cultured in serum-free medium and stimulated with LPS (200 ng/mL) with or without 14/10 (0.1–50 µM) for 24 h.
(§2) Bv.2 microglial cells were homogenized in lysis buffer containing 50 mM Tris-HCl, pH 7.4, 150 mM NaCl, 1 mM Na3VO4, 1 mM NaF, 1 mM EGTA, […] and 0.25% (w/v) sodium deoxycholate, supplemented with protease inhibitors (10 µg/mL leupeptin, 10 µg/mL aprotinin, and 100 µg/mL phenylmethylsulphonyl fluoride). All debris was removed by centrifugation at 14,000× g for 10 min at 4 °C and protein concentration was quantified using the Bio-Rad protein assay with BSA as a standard. Equivalent amounts of protein were resolved using denaturing sodium dodecyl sulphate-polyacrylamide gel electrophoresis (SDS-PAGE), followed by transfer to PVDF membranes (Bio-Rad). […]
(§3) Densitometry of the Western blots was performed using the ImageJ program. […] Data were analyzed by one-way ANOVA followed by Bonferroni t-test or by paired t-test when comparisons were among two groups. […]
In general terms: In western blotting, separated proteins are transferred to a membrane and probed.

For series [3], the system named is HeLa (cervix) human solid tumor cell line. The series is described as follows: Antiproliferative SRB assay (HTS), HeLa. The conditions noted are these: 48 h. In kind it is cell-based. The procedure:
(§4) All reagents were used as purchased from commercial suppliers without further purification. The human solid tumor cell lines used in this study were: A549, SW1573 (lung), HBL-100, T-47D (breast), HeLa (cervix) and WiDr (colon). These cell lines were a kind gift from Prof. G.J. Peters (VU Medical Center, Amsterdam, The Netherlands).
(§5) Cells were inoculated onto 96-well microtiter plates in a volume of 100 μL per well at densities of 2500 (A549, HBL-100, HeLa, and SW1573) and 5000 (T-47D and WiDr) cells per well, based on their doubling times. Compounds were initially dissolved in DMSO at 400 times the desired final maximum test concentration. Control cells were exposed to an equivalent concentration of DMSO (0.25% v/v, negative control). Each agent was tested in triplicate at different dilutions in the range of 1–100 μM. The drug treatment started on day 1 after plating. Drug incubation times were 48 h, after which cells were precipitated with 25 μL ice-cold TCA (50% w/v) and fixed for 60 min at 4 °C. Then the SRB assay was performed. The optical density (OD) of each well was measured at 530 nm, using BioTek’s PowerWave XS Absorbance Microplate Reader. Values were corrected for background OD from wells only containing medium. The antiproliferative activity for each compound, expressed as GI50 values, was calculated according to NCI formulas.
(In general: The SRB assay estimates cell density from bound dye.)

For series [4], the system named is WiDr (colon) human solid tumor cell line. The series can be described thus: Antiproliferative SRB assay (HTS), WiDr. In kind it is cell-based. The following applies: 48 h. The protocol: as §4, §5
In series [5] the test system is T-47D (breast) human solid tumor cell line. The series is described as follows: Antiproliferative SRB assay (HTS), T-47D. In kind it is cell-based. The following applies: T47D, 48 h. The procedure: as §4, §5
The subject of series [6] is SW1573 (lung) human solid tumor cell line. The series can be described thus: Antiproliferative SRB assay (HTS), SW1573. In kind it is cell-based. The conditions noted are these: 48 h. The protocol: as §4, §5
For series [7], the system named is intracellular amastigotes of Leishmania donovani HU3. The series can be described thus: Susceptibility of intracellular Leishmania amastigotes (luciferase) in THP-1 macrophages. In kind it is cell-based. The conditions noted are these: L. donovani HU3 in macrophage-differentiated THP-1, 72 h, threshold 20 μM. The procedure:
Macrophage-differentiated-THP-1 cells, which are considered a suitable model for human macrophages, were plated at a density of 3 × 10^4 macrophages/well in 96-well white polystyrene microplates, and were infected at a macrophage/parasite ratio of 1:10 with L. donovani HU3 promastigotes. 24 h after infection at 35 °C and 5% CO2, extracellular parasites were removed by washing with serum-free medium. Infected cell cultures were then incubated at different compound concentrations in RPMI 1640 medium plus 10% iFBS at 37 °C with 5% CO2 for 72 h. To determine the susceptibility of L. donovani-LUC amastigotes, infected macrophages maintained in 96-well plates were lysed and then luminescence intensity was measured as indicative of the intracellular parasite growth, using the Luciferase Assay System Kit (Promega, Madison, WI, USA) according to the instructions of the supplier.

In series [8] the test system is nitrite production in Bv.2 microglial cells. The series can be described thus: Nitrite production in LPS-stimulated Bv.2 cells (Griess method). In kind it is cell-based, mouse. The following applies: LPS 200 ng/mL, 24 h. The protocol: as §1
Nitrite levels were measured by using the Griess method. Briefly, nitrites turn into a pink compound in contact with an acid solution containing 1% sulphanilamide and 0.1% N-(1-naphthyl)ethylenediamine (NEDA), and can be quantified by a colorimetric method at 540 nm in a microplate reader (Versamax Tunable Microplate reader, Molecular Devices, Sunnyvaley, CA, USA).
(In general: The Griess reaction detects nitrite, a stable product of nitric oxide.)

Series [9] relates to human solid tumor cell lines A549, SW1573, HBL-100, T-47D, HeLa, WiDr. The series is described as follows: Antiproliferative SRB assay (HTS), whole panel of six cell lines. In kind it is cell-based. The conditions noted are these: Homo sapiens; range over the six tumor cell lines; read-out: GI50 against all the cell lines tested. The protocol: as §4, §5
Series [10] concerns A549 (lung) human solid tumor cell line. The series can be described thus: Antiproliferative SRB assay (HTS), A549. In kind it is cell-based. The conditions noted are these: 48 h. The procedure:
as §4, §5

In series [11] the test system is iNOS expression in Bv.2 microglial cells. The series is described as follows: LPS-induced iNOS protein expression (Western blot). The conditions noted are these: Bv.2 cells, LPS 200 ng/mL, compound at 50 μM (five-fold higher concentration). In kind it is cell-based, mouse. The protocol:
as §1, §2, §3

Series [12] deals with HBL-100 (breast) human solid tumor cell line. The series is described as follows: Antiproliferative SRB assay (HTS), HBL-100. In kind it is cell-based. The following applies: 48 h. The protocol:
as §4, §5

A short description of series [13]: Cellular toxicity, MTT assay, THP-1. The following applies: human, THP-1 cells differentiated to macrophages with PMA, maximal concentration 200 µM, read-out: EC50 THP-1 Cell Line (cytotoxicity). In kind it is cell-based. The procedure:
(§6) Human myelomonocytic cell line THP-1 was grown at 37 °C and 5% CO2 in RPMI-1640 supplemented with 10% iFBS, 2 mM […], 100 U/mL penicillin and 100 μg/mL streptomycin. 3 × 10^4 cells/well in 96-well plates were differentiated to macrophages with 20 ng/mL of PMA treatment for 48 h followed by 24 h of culture in fresh medium. MRC5 cells were grown at 37 °C and 5% CO2 in DMEM complete media. 4000 cells/well in 96-well plates were incubated for 24 h at 37 °C and 5% CO2.
(§7) Cellular toxicity of all compounds was determined using the colorimetric MTT-based assay after incubation at 37 °C for 72 h in the presence of increasing concentrations of compounds (final maximal concentrations 200 µM). The results are expressed as EC50 values, as the concentration of the compound that reduce cell growth by 50% versus untreated control cells. Assays were performed in triplicate.

The nature of series [14]: Cellular toxicity, MTT assay, MRC-5. In kind it is cell-based. The following applies: human, MRC-5 cells, maximal concentration 200 µM, read-out: EC50 MRC-5 Cell Line (cytotoxicity). The procedure: as §6, §7
Series [15] concerns Bv.2 microglia cells. The series is described as follows: Cellular viability by crystal violet staining. In kind it is cell-based, mouse. The conditions noted are these: Bv.2 cells, 24 h, different concentrations. The protocol:
as §1
After cell treatments, the medium was discarded, and the remaining viable adherent cells were stained with crystal violet (0.2% w/v in 2% ethanol) for 20 min. After this time, plates were rinsed with tap water and allowed to dry, and 1% SDS was added to solubilize them. The absorbance of each plate was read spectrophotometrically at 560 nm.

Like-named read-outs stand apart in the source and are kept apart here. A value given as a limit tells only on which side of the number the result lay.

By GI50 is commonly meant the concentration at which growth is held to half of that of the control. Consider `O=c1[nH]cc(F)c(=O)[nH]1` [Compound 5-FU, 5-fluorouracyl], for which the GI50 in series [1] is 5 to 50 µM.

One may read the EC50 as the concentration that produces a half-maximal response. Consider `CCCCCCCCCCCCS[C@@H]1[C@H](O)[C@@H](O)[C@H](O)[C@H]2COC(=O)N21` [Compound 14, (1R)-1-dodecylthio-5N,6O-oxomethylidenenojirimycin], for which, in series [2], the “induction of arginase-1” value was “did not induce arginase-1 expression”. The GI50 was 17 µM in [3]; 18 µM in series [4]; 18 µM in series [5]; 18 µM in series [6]; 16 to 28 µM in series [9]; 16 µM in [10]. This molecule registered a GI50 in [12] of 17 µM. For the same molecule, the EC50 in series [7] was > 20 µM. For the same molecule, in [8], the “concentration at which nitrite production reached basal level” value came to 50 µM. In addition, in series [11], the “iNOS increase remaining after treatment (LPS alone 20-fold)” value is on record as “about 8 fold”. Moreover, the results for the EC50 at 72 h in [13] and in series [14] were 70.5 ± 3.75 µM and 43.1 ± 9.83 µM, respectively. Besides, in series [15], the “effect on cellular viability” value is given as “none of the concentrations used induced a negative effect”.

(Values after publication PMC8705409, “Synthesis of sp^2-Iminosugar Selenoglycolipids as Multitarget Drug Candidates with Antiproliferative, Leishmanicidal and Anti-Inflammatory Properties” (Molecules, 2021).)
